Each structure is given as a SMILES string.

Data set [1] deals with Escherichia coli BL21. In words: Growth inhibition of Escherichia coli BL21 expressing MVK, PMK, MDD and fed MVA. The class given is cell-based. As to conditions: 5.8 mM MVA. As for the experimental part:
FIG. 145 is a graph of growth curves for cultures of BL21 expressing MVK, circles; MVK+PMV, triangles; MVK+PMV+MDD, squares. Cultures were either fed 5.8 mM MVA, filled symbols, or grown without addition of MVA, open symbols. Y-axis is OD600. Samples were taken for analysis at times indicated by the arrow. Numbers above the arrows correspond to E. coli BL21 cells bearing pTrcK, representing a plasmid expressing MVK (#5), pTrcKK representing a plasmid expressing MVK plus PMK (#7), and pTrcKKD, representing a plasmid expressing MVK plus PMK plus MDD (#6) were grown.
The purpose of this experiment was to determine the effect of the expression of the proteins mevalonate kinase (MVK), phophomevalonate kinase (PMK), and diphosphomevalonate decarboxylase (MDD) of Escherichia coli cultures.
E. coli BL21 cells bearing pTrcK, representing a plasmid expressing MVK, pTrcKK representing a plasmid expressing MVK plus PMK, and pTrcKKD, representing a plasmid expressing MVK plus PMK plus MDD were grown at approximately 30° C. and 250 rpm in 250 mL flasks containing 25 mL of TM3 medium (13.6 g K2PO4, 13.6 g KH2PO4, 2.0 g MgSO4*7H2O) supplemented with 1% glucose and 0.8 g/L Biospringer yeast extract (1% Yeast extract final). When OD600 reached 0.8 to 0.9, 5.8 mM mevalonic acid was added to the cultures and incubation was continues for an additional 5 hours. OD600 measurements were taken, and the cultures were sampled for metabolite analysis at 2 hours post MVA addition. Samples were collected into 100% MeOH prechilled in dry ice in a ratio of 1:1. Samples were stored at −80° C. until analyzed as follows. The methanol-quenched cells were pelleted by centrifugation and the resulting supernatant was loaded onto Strata-X-AW anion exchange column (Phenomenex) containing 30 mg of sorbent. The pellet was reextracted twice with several milliliters of 50%, v/v, aqueous methanol containing 20% ammonium bicarbonate buffer (pH=8.0) and then with 75%, v/v, aqueous bicarbonate-buffered methanol. […]

For data set [2] the following is noted: about 1 atmosphere and about 60° F.; cited from earlier work.
A short description of data set [3]: Flammability modeling (CAFT) and experimental flammability testing of isoprene. It counts as physicochemical. The text has this:
Thus, computer modeling and experimental testing were used to determine the flammability limits of isoprene (such as isoprene in the presence of O2, N2, CO2, or any combination of two or more of the foregoing gases) in order to ensure process safety. The flammability envelope is characterized by the lower flammability limit (LFL), the upper flammability limit (UFL), the limiting oxygen concentration (LOC), and the limiting temperature. For a system to be flammable, a minimum amount of fuel (such as isoprene) must be in the presence of a minimum amount of oxidant, typically oxygen. The LFL is the minimum amount of isoprene that must be present to sustain burning, while the UFL is the maximum amount of isoprene that can be present. Above this limit, the mixture is fuel rich and the fraction of oxygen is too low to have a flammable mixture. The LOC indicates the minimum fraction of oxygen that must also be present to have a flammable mixture. The limiting temperature is based on the flash point of isoprene and is that lowest temperature at which combustion of isoprene can propagate. […]
The LOC was determined to be 9.5 vol % for an isoprene, O2, N2, and CO2 mixture at 40° C. and 1 atmosphere. […]
Calculated adiabatic flame temperatures (CAFT) along with a selected limit flame temperature for combustion propagation were used to determine the flammability envelope for isoprene. […]

Regarding `C[C@@](O)(CCO)CC(=O)O` [MVA, mevalonic acid], the “growth (OD600)” value is given as “No growth inhibition was observed” in data set [1] (BL21 pTrcK, MVK only (strain #5)); “inhibition of growth was evident” in data set [1] (BL21 pTrcKK, MVK plus PMK (strain #7)); “additional inhibition is observed” in data set [1] (BL21 pTrcKKD, MVK plus PMK plus MDD (strain #6)).
`CCO` [ethanol]: in data set [2], the LFL entry is given as “about 3.3 vol %” and the LOC result is “about 8.7 vol %”.
For the compound `C=CC(=C)C` [isoprene, 2-methyl-1,3-butadiene], the “limiting oxygen concentration (LOC)” value in data set [3] (isoprene, O2, N2, and CO2 mixture at 40° C. and 1 atmosphere) was found to be 9.5 vol %. The limiting temperature entry in data set [3] (lowest temperature at which combustion of isoprene can propagate) was “about −54 °C”.
